Counter-ions that a name gives are not always drawn.
What was measured:
[1] = Metabolic stability and metabolite identity, rat intestinal S9 fractions; type: in vitro ADME; settings: FFA incubation, LC-MS/MS; X = identified
Method: LC‐MS/MS analyses to assess metabolic stability and identify the transporter substrate were performed using an API 4000 QTRAP mass spectrometer (SCIEX, Framingham, MA) with electrospray ionization in positive mode. Chromatography was performed using an Atlantis dC18 analytical column (100 × 2.1 mm, 5 µm; Waters Corporation, Milford, MA). Mobile phases were 0.2% v/v formic acid in water and 0.2% v/v formic acid in acetonitrile. For metabolic stability experiments, FFA and metabolites were eluted at a flow rate of 0.6 mL/min, with a linear gradient of 20%−80% acetonitrile from 0.30−2.0 min. For transporter substrate experiments, the gradient was slightly modified to achieve suitable chromatography. The mass transitions monitored were 232.0 > 159.0 for FFA and 348.0 > 330.0 for 1ʹ‐OH‐midazolam‐d4 internal standard. […]
FFA (1 or 10 µM) was incubated with liver and intestinal S9 fractions (2 mg protein/mL) at 37 ± 1°C in 0.2‐mL incubation mixtures containing potassium phosphate buffer (50 mM, pH 7.4), magnesium chloride (MgCl2) (3 mM), and EDTA (1 mM, pH 7.4), in the presence or absence of a three‐component cofactor mixture (NADPH‐generating system, uridine diphosphate glucuronic acid (UDPGA) [8 mM], and 3’‐phosphoadenosine 5’‐phosphosulfate [0.5 mM]). […] Supernatant fractions were analyzed by LC‐MS/MS.
To characterize substrate loss and metabolic stability, duplicate samples were analyzed by LC‐MS/MS to determine the change in substrate concentration over the incubation period. The rate constant of elimination (kel, min^−1) was determined from the time course of substrate loss based on single exponential decay (A(t)=A0(‐kelt)) . Half‐life in vitro was determined by the following equation: t1/2 = 0.693/kel. The in vitro intrinsic clearance (CLint) was calculated from the rate constant of elimination as follows: CLintμL/min/mgprotein=kelmin^‐1×incubationvolume(μL)/mgproteinperincubation.
Percent loss of substrate was determined by normalizing the mean analyte peak‐area ratio at each time point to the average of four replicates at the 0‐min time point (100%).

CYP2C19 = CYP2C19 (Homo sapiens, UniProt P33261); test: in vitro; settings: microsomes
Method: (§1) To determine the metabolic role of individual CYP450 enzymes more quantitatively, FFA (1 μM) or nFFA (0.1 μM) was manually incubated in duplicate with human liver microsomes (1 mg protein/mL) for 60 min (FFA), or for 0 and 120 min (nFFA), in the presence of direct‐acting or metabolism‐dependent chemical inhibitors. […] Solvent controls were processed in parallel with each inhibitor. Under the conditions described above, incubations were conducted and reactions terminated at 0 or 120 min. Metabolite formation for chemical inhibitors was normalized over time to metabolite formation in the respective solvent controls for each inhibitor. Assays were conducted in duplicate due to the low biological and technical variability expected in this assay; statistical analysis was not possible with duplicate samples.

CYP1A2 = molecular target: T1, CYP1A2 (Homo sapiens, UniProt P05177); test: Chemical inhibition of FFA metabolism in human liver microsomes, CYP1A2; type: in vitro ADME; settings: probe FFA (1 µM), demethylation to nFFA, inhibitor 10 µM, metabolism-dependent, read-out: Reduction in FFA demethylation (percent inhibition by a selective inhibitor)
T1 construct: manually incubated in duplicate with human liver microsomes (1 mg protein/mL); tissue Sekisui XenoTech, LLC; host or cells: pooled human liver microsomes (200 donors)
T1 sequence (P05177 1-516): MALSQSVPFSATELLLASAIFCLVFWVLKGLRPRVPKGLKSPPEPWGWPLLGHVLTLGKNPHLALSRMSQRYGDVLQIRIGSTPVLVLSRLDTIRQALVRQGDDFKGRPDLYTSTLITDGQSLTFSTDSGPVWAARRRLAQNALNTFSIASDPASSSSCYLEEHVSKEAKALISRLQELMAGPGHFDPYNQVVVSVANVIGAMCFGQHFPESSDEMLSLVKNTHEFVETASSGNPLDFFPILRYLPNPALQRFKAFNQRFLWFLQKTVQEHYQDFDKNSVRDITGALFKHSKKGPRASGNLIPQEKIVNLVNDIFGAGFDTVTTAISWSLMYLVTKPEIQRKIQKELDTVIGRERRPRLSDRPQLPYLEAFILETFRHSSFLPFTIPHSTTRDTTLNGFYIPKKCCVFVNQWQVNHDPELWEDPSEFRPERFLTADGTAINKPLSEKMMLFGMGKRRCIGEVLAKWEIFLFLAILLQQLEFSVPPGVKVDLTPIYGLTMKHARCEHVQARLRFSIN
Method: as §1

CYP3A4/5 = settings: inhibitor 0.1, 0.5, 1 µM, direct-acting; FFA 1 μM, human liver microsomes
Method: as §1

CYP2B6 = molecular target: T2, CYP2B6 (Homo sapiens, UniProt P20813); test: Chemical inhibition of FFA metabolism in human liver microsomes, CYP2B6; type: in vitro ADME; settings: probe FFA (1 µM), demethylation to nFFA, inhibitor 30 µM, metabolism-dependent, read-out: Reduction in FFA demethylation (percent inhibition by a selective inhibitor)
T2 construct: manually incubated in duplicate with human liver microsomes (1 mg protein/mL); tissue Sekisui XenoTech, LLC; host or cells: pooled human liver microsomes (200 donors)
T2 sequence (P20813 1-491): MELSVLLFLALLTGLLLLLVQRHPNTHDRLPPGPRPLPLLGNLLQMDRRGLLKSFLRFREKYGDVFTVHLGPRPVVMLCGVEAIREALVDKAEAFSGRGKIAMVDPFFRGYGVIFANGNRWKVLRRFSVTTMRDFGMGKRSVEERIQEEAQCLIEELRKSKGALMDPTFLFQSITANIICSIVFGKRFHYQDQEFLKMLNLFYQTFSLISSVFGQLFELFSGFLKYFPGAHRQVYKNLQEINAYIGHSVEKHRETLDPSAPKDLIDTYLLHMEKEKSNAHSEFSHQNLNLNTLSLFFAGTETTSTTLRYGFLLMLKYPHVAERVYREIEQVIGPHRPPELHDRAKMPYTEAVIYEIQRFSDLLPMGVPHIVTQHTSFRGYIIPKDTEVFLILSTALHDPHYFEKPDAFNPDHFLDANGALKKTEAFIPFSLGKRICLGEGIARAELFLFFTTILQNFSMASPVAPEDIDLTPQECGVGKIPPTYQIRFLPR
Method: as §1

CYP2D6 = CYP2D6 (Homo sapiens, UniProt P10635); test: in vitro; settings: microsomes
Method: as §1

CYP2C9 = molecular target: T3, CYP2C9 (Homo sapiens, UniProt P11712); test: Chemical inhibition of FFA metabolism in human liver microsomes, CYP2C9; type: in vitro ADME; settings: inhibitor 20 µM, metabolism-dependent
T3 construct: manually incubated in duplicate with human liver microsomes (1 mg protein/mL); tissue Sekisui XenoTech, LLC; host or cells: pooled human liver microsomes (200 donors)
Method: as §1

BCRP = molecular target: T4, BCRP (Homo sapiens, UniProt Q9UNQ0); settings: cited from earlier work
T4 sequence (Q9UNQ0 1-655): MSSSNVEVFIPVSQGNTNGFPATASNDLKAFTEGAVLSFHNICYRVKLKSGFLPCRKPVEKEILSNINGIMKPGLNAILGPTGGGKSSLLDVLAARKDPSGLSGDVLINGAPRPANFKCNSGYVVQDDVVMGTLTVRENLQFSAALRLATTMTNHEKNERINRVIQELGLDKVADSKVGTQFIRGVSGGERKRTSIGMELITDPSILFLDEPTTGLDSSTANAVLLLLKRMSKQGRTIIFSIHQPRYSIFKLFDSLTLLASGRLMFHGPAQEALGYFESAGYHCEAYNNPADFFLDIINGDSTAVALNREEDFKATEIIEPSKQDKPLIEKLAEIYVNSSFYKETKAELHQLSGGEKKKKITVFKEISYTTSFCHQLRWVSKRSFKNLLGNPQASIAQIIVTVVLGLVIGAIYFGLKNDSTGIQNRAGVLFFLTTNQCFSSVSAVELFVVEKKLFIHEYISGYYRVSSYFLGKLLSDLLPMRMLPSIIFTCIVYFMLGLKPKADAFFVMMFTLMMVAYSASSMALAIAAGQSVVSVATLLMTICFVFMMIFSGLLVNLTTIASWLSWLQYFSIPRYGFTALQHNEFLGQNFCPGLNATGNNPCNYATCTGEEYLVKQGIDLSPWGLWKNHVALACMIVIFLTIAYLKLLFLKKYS

P‐gp = P‐gp (Homo sapiens, UniProt P08183); settings: cited from earlier work
Chain of P‐gp (P08183 whole entry): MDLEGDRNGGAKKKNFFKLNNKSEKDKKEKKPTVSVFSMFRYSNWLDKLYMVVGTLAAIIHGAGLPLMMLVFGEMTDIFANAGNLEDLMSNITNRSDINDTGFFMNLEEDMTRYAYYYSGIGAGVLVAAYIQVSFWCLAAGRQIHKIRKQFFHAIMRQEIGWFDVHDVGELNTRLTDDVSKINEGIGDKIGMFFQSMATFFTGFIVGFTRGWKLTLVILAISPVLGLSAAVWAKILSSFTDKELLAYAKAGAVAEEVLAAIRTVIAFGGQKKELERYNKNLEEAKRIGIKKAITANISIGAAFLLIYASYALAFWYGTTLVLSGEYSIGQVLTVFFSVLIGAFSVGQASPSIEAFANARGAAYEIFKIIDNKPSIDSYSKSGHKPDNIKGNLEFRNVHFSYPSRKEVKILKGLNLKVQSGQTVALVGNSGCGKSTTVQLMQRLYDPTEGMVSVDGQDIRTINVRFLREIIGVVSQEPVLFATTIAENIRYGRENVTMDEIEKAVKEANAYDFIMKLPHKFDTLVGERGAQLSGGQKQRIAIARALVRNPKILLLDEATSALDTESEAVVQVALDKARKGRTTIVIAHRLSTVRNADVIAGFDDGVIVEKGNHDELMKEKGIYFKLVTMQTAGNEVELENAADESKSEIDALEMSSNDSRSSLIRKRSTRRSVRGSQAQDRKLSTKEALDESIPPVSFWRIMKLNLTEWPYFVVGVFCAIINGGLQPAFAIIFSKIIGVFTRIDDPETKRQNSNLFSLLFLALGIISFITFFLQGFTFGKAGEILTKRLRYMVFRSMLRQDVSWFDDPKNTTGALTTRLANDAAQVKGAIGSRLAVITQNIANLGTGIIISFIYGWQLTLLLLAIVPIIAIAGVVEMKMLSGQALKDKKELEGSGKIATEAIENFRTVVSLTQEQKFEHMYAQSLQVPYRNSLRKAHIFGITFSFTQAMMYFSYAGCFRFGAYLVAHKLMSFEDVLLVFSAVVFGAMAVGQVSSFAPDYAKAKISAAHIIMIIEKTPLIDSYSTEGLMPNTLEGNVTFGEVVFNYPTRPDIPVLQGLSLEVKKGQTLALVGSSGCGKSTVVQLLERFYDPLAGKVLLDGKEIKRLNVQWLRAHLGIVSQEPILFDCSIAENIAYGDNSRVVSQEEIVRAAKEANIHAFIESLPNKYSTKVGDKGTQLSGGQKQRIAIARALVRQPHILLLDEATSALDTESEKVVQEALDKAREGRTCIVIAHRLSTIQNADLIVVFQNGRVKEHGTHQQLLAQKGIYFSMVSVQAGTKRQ

T3 sequence (P11712 whole entry): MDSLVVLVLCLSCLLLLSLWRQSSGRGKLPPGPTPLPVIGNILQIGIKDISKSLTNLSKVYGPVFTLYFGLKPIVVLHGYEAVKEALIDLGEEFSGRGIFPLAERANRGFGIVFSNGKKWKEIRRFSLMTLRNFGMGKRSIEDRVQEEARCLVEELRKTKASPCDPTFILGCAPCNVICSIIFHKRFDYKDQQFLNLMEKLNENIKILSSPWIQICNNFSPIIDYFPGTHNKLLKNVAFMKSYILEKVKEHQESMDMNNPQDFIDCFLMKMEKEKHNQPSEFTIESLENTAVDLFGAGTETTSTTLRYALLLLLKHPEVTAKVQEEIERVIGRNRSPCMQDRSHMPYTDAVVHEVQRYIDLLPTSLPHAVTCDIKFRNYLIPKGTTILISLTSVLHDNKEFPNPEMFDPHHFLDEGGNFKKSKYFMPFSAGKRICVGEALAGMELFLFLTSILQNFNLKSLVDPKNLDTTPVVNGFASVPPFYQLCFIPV
Chain of CYP2C19 (P33261 whole entry): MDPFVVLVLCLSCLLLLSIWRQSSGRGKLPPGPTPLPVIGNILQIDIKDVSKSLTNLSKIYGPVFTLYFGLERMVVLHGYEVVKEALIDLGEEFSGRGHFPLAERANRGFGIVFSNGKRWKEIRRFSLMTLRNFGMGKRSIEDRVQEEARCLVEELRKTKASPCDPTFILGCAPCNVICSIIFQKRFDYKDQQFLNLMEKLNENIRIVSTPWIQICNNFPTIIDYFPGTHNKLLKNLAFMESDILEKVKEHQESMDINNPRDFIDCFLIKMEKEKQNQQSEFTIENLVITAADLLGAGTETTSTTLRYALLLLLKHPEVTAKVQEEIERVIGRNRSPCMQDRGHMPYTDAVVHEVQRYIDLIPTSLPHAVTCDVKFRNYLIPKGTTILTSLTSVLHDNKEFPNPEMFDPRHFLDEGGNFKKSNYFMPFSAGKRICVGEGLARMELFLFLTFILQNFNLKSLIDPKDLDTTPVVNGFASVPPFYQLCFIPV
Chain of CYP2D6 (P10635 whole entry): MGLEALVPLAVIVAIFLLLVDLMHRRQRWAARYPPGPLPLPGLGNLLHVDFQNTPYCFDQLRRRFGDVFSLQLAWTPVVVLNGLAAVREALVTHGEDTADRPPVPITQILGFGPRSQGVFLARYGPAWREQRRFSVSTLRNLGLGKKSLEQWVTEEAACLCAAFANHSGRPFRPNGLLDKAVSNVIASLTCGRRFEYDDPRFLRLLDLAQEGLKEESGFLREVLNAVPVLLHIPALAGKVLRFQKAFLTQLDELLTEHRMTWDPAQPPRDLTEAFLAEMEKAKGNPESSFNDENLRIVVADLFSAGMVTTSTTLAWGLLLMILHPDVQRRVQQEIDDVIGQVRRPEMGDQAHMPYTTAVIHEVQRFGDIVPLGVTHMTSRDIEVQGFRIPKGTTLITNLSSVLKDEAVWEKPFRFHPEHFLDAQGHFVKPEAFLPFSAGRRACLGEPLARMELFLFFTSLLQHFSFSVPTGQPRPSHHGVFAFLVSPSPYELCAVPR

| Structure (SMILES) | substrate capacity for BCRP (BCRP) | substrate capacity for P‐gp (P‐gp) | other results |
| --- | --- | --- | --- |
| CC(Cc1cccc(C(F)(F)F)c1)NO (centres unmarked) [C2] | – | – | identified in Intestinal S9 fractions, Rat [1]: trace |
| COc1ccc2nc([S@@+]([O-])Cc3ncc(C)c(OC)c3C)[nH]c2c1 [Esomeprazole, esomeprazole] | – | – | Reduction in FFA demethylation (percent inhibition by a selective inhibitor) (CYP2C19; 60 min, 10 µM): 8%; inhibition at 60 min, 10 µM (CYP2C19; Reduction in FFA demethylation (percent inhibition by a selective inhibitor)): < 15% |
| Cc1nc2c([nH]1)c(=O)n(C)c(=O)n2Cc1ccco1 [Furafylline, furafylline] | – | – | inhibition at 60 min, 10 µM (CYP1A2): 32% |
| CC(=O)N1CCN(c2ccc(OCC3COC(Cn4ccnc4)(c4ccc(Cl)cc4Cl)O3)cc2)CC1 (centres unmarked) [Ketoconazole, ketoconazole] | – | – | Reduction in FFA demethylation (percent inhibition by a selective inhibitor) (CYP3A4/5): None |
| c1ccc(C2(N3CCCCC3)CCCCC2)cc1 [Phencyclidine, phencyclidine hydrochloride] | – | – | inhibition at 60 min, 30 µM (CYP2B6): 42% |
| C=C[C@H]1C[N@@]2CC[C@H]1C[C@@H]2[C@@H](O)c1ccnc2ccc(OC)cc12 [Quinidine, quinidine] | – | – | inhibition at 60 min, 1 µM (CYP2D6): 37% |
| O=C(O)COc1ccc(C(=O)c2cccs2)c(Cl)c1Cl [Tienilic acid] | – | – | inhibition at 60 min, 20 µM (CYP2C9; human, liver microsomes, probe FFA (1 µM), demethylation to nFFA, read-out: Reduction in FFA demethylation (percent inhibition by a selective inhibitor)): < 15%; Reduction in FFA demethylation (percent inhibition by a selective inhibitor) (CYP2C9; FFA 1 μM): 14% |
| NC(=O)N1c2ccccc2C=Cc2ccccc21 [carbamazepine] | did not show substrate capacity | did not show substrate capacity | – |
| CC[C@@H](C(N)=O)N1CCCC1=O [levetiracetam] | did not show substrate capacity | did not show substrate capacity | – |
| CCC1(c2ccccc2)C(=O)NC(=O)NC1=O [phenobarbital] | did not show substrate capacity | – | – |
| O=C1NC(=O)C(c2ccccc2)(c2ccccc2)N1 [phenytoin] | did not show substrate capacity | did not show substrate capacity | – |
| CC1(C)O[C@@H]2[C@@H](CO[C@@]3(COS(N)(=O)=O)OC(C)(C)O[C@@H]23)O1 [topiramate] | did not show substrate capacity | did not show substrate capacity | – |
| CCCC(CCC)C(=O)O [valproate] | did not show substrate capacity | did not show substrate capacity | – |
